From article PMC10100900, “Virtual Screening and In Vitro Experimental Verification of LuxS Inhibitors for Escherichia coli O157:H7” (Microbiology Spectrum, 2023) come the findings set out here.

SMILES strings stand for the structures. pIC50, pKd: −log10 of the molar value. Like-named read-outs stand apart in the source and are kept apart here.

Data set [1] addresses T1, LuxS of E. coli (Escherichia coli O157:H7, UniProt Q8X902).
T1 construct: endogenous in cells; host or cells: E. coli O157:H7 (ATCC 43895)
T1 sequence (Q8X902 2-171): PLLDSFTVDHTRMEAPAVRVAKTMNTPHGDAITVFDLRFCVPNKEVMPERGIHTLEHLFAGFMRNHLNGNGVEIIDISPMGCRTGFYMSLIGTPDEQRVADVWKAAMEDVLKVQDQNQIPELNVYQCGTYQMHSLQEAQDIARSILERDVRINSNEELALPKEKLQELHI
Nature of the data set: AI-2 bioluminescence assay (V. harveyi BB170 reporter) of AI-2 production. In kind it is cell-based. Conditions: E. coli O157:H7 cultured 16 h with inhibitor, supernatant read with V. harveyi BB170.

Data set [2] has as its system luxS gene. In kind it is cell-based, E. coli.
In data set [3] the test system is Caco-2 cells. Nature of the data set: Cytotoxicity, CCK-8 assay. In kind it is cell-based. To be noted: 24 h. The procedure:
The cytotoxicity of hit compounds was assessed by a CCK-8 assay in Caco-2 cells. At 37°C, Caco-2 cells (1 × 10^5 cells/mL) were seeded in a 96-well plate for 24 h. Further, different concentrations of hit compounds were added to 96-well plates at final concentrations of 6.25, 12.5, 25, 50, and 100 μM. After incubation for 24 h, the plate was incubated at 37°C for 1 h with 10 μL of CCK-8 (MCE, China). A Multiskan Go Reader (Thermo Fisher Scientific) was used to measure the absorbance at 450 nm.

Data set [4] has as its system E. coli O157:H7 biofilm. The experiment in a line: Biofilm formation, crystal violet (CV) staining. Conditions: 50 μM, 24 h. Type of data set: cell-based, Escherichia coli O157:H7. The procedure:
Based on previous studies, CV staining was used to assess biofilm formation ([67]). The overnight cultured E. coli O157:H7 was diluted to OD600 of 0.01. The diluted E. coli suspensions were mixed with different concentrations of hit compounds and incubated at 37°C for 24 h. The plate was washed three times using PBS (pH 7.2) before it was fixed with methanol for 30 min. After staining for 30 min with CV, the plates were rinsed with distilled water and dried at 55°C. Finally, the CV attached to wells was dissolved in 95% ethanol. The absorbance at 570 nm was then measured using a Multiskan Go Reader.

Data set [5] deals with T2, LuxS (Escherichia coli O157:H7, UniProt Q8X902).
T2 sequence (Q8X902 2-171): T1 sequence (Q8X902 2-171)
Nature of the data set: Surface plasmon resonance (BIAcore T200) binding. The procedure: The binding affinity of the three compounds and LuxS was assessed by SPR assay using a BIAcore T200 (GE Healthcare, Pittsburgh, PA) ([64]). The LuxS protein was immobilized on a CM5 sensor chip with the final immobilization levels of 7,582.4 resonance units (RU). The running buffer used in the study was 1.0× phosphate-buffered saline containing detergent (PBS-P^+; pH 7.4) and 5% (vol/vol) dimethyl sulfoxide. For each binding cycle, the compound was injected for 120 s with a dissociation time of 180 s. A series of compound concentrations (0.94, 1.88, 3.75, 7.5, 15, and 30 μM) were injected for analysis, with furanone C30 as a positive control. Eventually, data were analyzed by Biacore evaluation software, whereas the equilibrium dissociation constant (KD = Kd/Ka) was calculated by curve fitting with a 1:1 binding model.

In data set [6] the test system is E. coli O157:H7. The experiment in a line: Metabolic activity, alamarBlue assay. Conditions: 6.25 to 100 μM, 24 h, compared to the control.
Data set [7] deals with E. coli O157:H7. The experiment in a line: Growth, microbroth dilution assay (OD600). Type of data set: cell-based, Escherichia coli O157:H7. Conditions: 6.25 to 100 μM, 24 h, compared to the control. The procedure: As described for previous protocols, growth and metabolic activity were evaluated by the broth dilution method and an alamarBlue assay ([65], [66]). Briefly, 96-well plates were seeded with bacterial suspension (OD600 = 0.01) containing different concentrations of hit compounds and incubated at 37°C for 24 h. At 600 nm, the absorbance was measured using the Multiskan Go Reader (Thermo Fisher Scientific, USA).

Where [8] appears, read: IC50, AI-2 bioluminescence assay.

`O=C(NCc1nc2ccccc2[nH]1)c1ccccc1` [0180-0358] gave a pIC50 in data set [1] (setting [8]) of 4.65.

`CCOc1ccc(NCC(=O)N/N=C/c2c[nH]c3ccccc23)cc1` [1761-1352] gave a negative logarithm of the IC50 (pIC50) in data set [1] (setting [8]) of 4.53. This pIC50 and that of the molecule before are within 0.2 log units of each other.

As for `O=C(N/N=C/c1ccc(O)c(O)c1)c1cc(-c2ccc3ccccc3c2)n[nH]1` [3254-3286], the “suppression of the expression of LuxS” value in data set [2] was around 57.4%. Moreover, the “cytotoxicity to Caco-2 cells” value in data set [3] (6.25 to 100 μM) is “nontoxic”. Also, in data set [4], the “biofilm formation, increased by about” value is given as around 81.12%. The same molecule gave a pKd in data set [5] of 4.73. Besides, the pIC50 in data set [1] (setting [8]) is 5.12. For the same molecule, the “effect on metabolic activity of E. coli” value in data set [6] is given as “no significant effect”. Also, in data set [7], the “effect on growth of E. coli” value is “no significant effect”.

Molecule `COc1ccc2[nH]c(C(=O)NC3CCC(CN4Cc5ccccc5C4=O)CC3)c(C)c2c1` (stereo not shown) [D753-0186] had a pIC50 in data set [1] (setting [8]) of 4.72.

In turn, `Cc1ccc2ccc3cc(C(=O)NCCN4CCN(c5cccc(Cl)c5)CC4)[nH]c3c2n1` [E941-0195] gave a pIC50 in data set [1] (setting [8]) of 4.55.

Molecule `O=C(NCCN1CCN(c2cccc(Cl)c2)CC1)c1cc2ccc3cccnc3c2[nH]1` [E950-0195] gave a pIC50 in data set [1] (setting [8]) of 4.48.

The molecule `O=C(NCCN1CCN(c2ccccc2F)CC1)c1cc2ccc3cccnc3c2[nH]1` [E950-0198] showed a pIC50 in data set [1] (setting [8]) of 4.51.

`Cc1cc(CNC(=O)Nc2cccc3c2CCCC3)c(C)n1-c1ccccc1` [E983-1808] gave a pIC50 in data set [1] (setting [8]) of 4.66.

With `NC1=C(c2nc3ccccc3s2)C(=O)CN1c1cccc(C(=O)NCc2ccccc2)c1` [F187-0533], the pIC50 in data set [1] (setting [8]) was 4.87.

`Cc1[nH]c(C(=O)NC2CCCCC2)c(C)c1S(=O)(=O)N1CCCCCC1` [F379-1612] showed a pIC50 in data set [1] (setting [8]) of 4.58.

In data set [1] (setting [8]), `COc1ccc(C(=O)Nc2cc(NC(=O)c3cc4ccccc4[nH]3)ccc2OC)cc1` [F603-0744] gave a pIC50 of 4.91.

`O=C(NCC1CCN(Cc2ccc(Cl)cc2)CC1)c1n[nH]c2c1COc1ccccc1-2` [G365-0523] had a pIC50 in data set [1] (setting [8]) of 4.91.

The molecule `COc1cccc(NC(=O)CSCc2cc(=O)c3ccccc3[nH]2)c1` [G751-0153] had a negative logarithm of the IC50 (pIC50) in data set [1] (setting [8]) of 4.77.

The molecule `CCc1ccc(NC(=O)CSCc2cc(=O)c3cccc(F)c3[nH]2)cc1` [G751-5415] gave a pIC50 in data set [1] (setting [8]) of 4.58.

In data set [1] (setting [8]), `CCc1ccc(NC(=O)CSCc2cc(=O)c3cc(CC)ccc3[nH]2)cc1` [G751-5495] showed a pIC50 of 4.61.

With `Cc1ccc(C(=O)N2CCc3cc(CNC(=O)c4ccc(C#N)cc4)ccc32)cc1` [G883-0304], in data set [1] (setting [8]), the pIC50 is 4.72.

`Cc1ccc(C(=O)N2CCc3cc(CNC(=O)c4ccc(Br)cc4)ccc32)cc1` [G883-0331] gave a pIC50 in data set [1] (setting [8]) of 4.82.

With `Cc1ccc(C(=O)NCc2ccc3c(c2)CCN3C(=O)c2ccc(Cl)cc2)cc1` [G883-0476], the pIC50 in data set [1] (setting [8]) is 4.73.

As to `O=C(NCc1ccc2c(c1)CCN2C(=O)c1ccccc1)c1ccc(Cl)cc1` [G883-0595], the pIC50 in data set [1] (setting [8]) was 4.73.

The molecule `O=C(NCc1ccc2c(c1)CCN2C(=O)c1ccccc1)c1ccc(Br)cc1` [G883-0627] showed a pIC50 in data set [1] (setting [8]) of 4.71.

In data set [1] (setting [8]), `O=C(NCc1ccc2c(c1)CCN2C(=O)c1ccc(F)cc1)c1cc2ccccc2[nH]1` [G883-0849] showed a pIC50 of 4.66.

In data set [1] (setting [8]), `CC(C)C(=O)N1CCc2cc(CNC(=O)c3cc4ccccc4[nH]3)ccc21` [G883-2010] showed a pIC50 of 4.60.

Take `O=C(NCc1nc(-c2ccc3c(c2)ncn3C2CCCC2)no1)c1ccccc1` [G945-0601]: the pIC50 in data set [1] (setting [8]) is 4.87.

Turning to `O=C(NC1CCN(Cc2ccccc2)CC1)c1ccc(-c2cc(N3CCCC3)ncn2)cc1` [L010-0050], the pIC50 in data set [1] (setting [8]) is 4.69.

With `CSc1ccc(CNC(=O)c2cccc(-c3cnc(N4CCCC4)nc3)c2)cc1` [L368-0079], in data set [4], the “biofilm formation, increased by about” value is on record as around 76.8%. The pIC50 in data set [1] (AI-2 bioluminescence assay) was 5.15.

Molecule `CCC(=O)N1CCc2cc(-c3ccc(C(=O)NC4CCN(Cc5ccccc5)CC4)cc3)ccc21` [L413-0101] gave a pIC50 in data set [1] (setting [8]) of 4.87.

With `CCC(=O)N1CCc2cc(-c3ccc(C(=O)NCc4ccc(N(C)C)cc4)cc3)ccc21` [L413-0180], in data set [2], the “suppression of the expression of LuxS” value is given as around 65.1%. Moreover, the “cytotoxicity to Caco-2 cells” value is on record as “slightly cytotoxic” in data set [3] (100 μM) and “nontoxic” in data set [3] (6.25 to 50 μM). The “biofilm formation, increased by about” value in data set [4] is given as around 51.4%. Also, the pKd in data set [5] was 4.11. In data set [1] (setting [8]), this molecule had a pIC50 of 5.39. Moreover, in data set [6], the “effect on metabolic activity of E. coli” value is reported as “no significant effect”. Besides, the “effect on growth of E. coli” value in data set [7] was “no significant effect”.

Consider `CSc1ccc(CNC(=O)C2=Cc3cc(-c4ccccc4)ccc3OC2)cc1` [L449-1159], for which the “biofilm formation, increased by about” value in data set [4] is listed as “about 75.4%”. Further, the pIC50 in data set [1] (AI-2 bioluminescence assay) is 5.06.

For the molecule `CCCn1cnc2cc(CNC(=O)c3cc4cc(Cl)ccc4[nH]3)ccc21` [M414-3326], the “suppression of the expression of LuxS” value in data set [2] is given as “about 59.9%”. In addition, in data set [3] (6.25 to 100 μM), the “cytotoxicity to Caco-2 cells” value is recorded as “nontoxic”. The “biofilm formation, increased by about” value in data set [4] is around 53.6%. The pKd in data set [5] (read-out: equilibrium dissociation constant (KD), LuxS immobilized on CM5 chip, PBS-P+ pH 7.4, 5% DMSO, 1:1 binding model) was 5.72. The pIC50 in data set [1] (AI-2 bioluminescence assay) was 5.02. Besides, in data set [6], the “effect on metabolic activity of E. coli” value was “no significant effect”. In data set [7], the “effect on growth of E. coli” value is “no significant effect”.

Consider `CCCc1c(C)c2ccc(OC(=O)CNC(=O)c3ccccc3)cc2oc1=O` [Y040-2389], for which the pIC50 in data set [1] (setting [8]) is 4.89.

Consider `O=C1C=C(Br)/C(=C/Br)O1` [furanone C30, reference compound], for which the pKd in data set [5] (LuxS immobilized on CM5 chip, PBS-P+ pH 7.4, 5% DMSO, 1:1 binding model, read-out: equilibrium dissociation constant (KD)) is 6.46.
